In paper PMC7363885, “Fluorescent artificial receptor-based membrane assay (FARMA) for spatiotemporally resolved monitoring of biomembrane permeability” (Communications Biology, 2020):
Entries after “also recorded” stand apart in the source; their conditions may differ. Like-named read-outs stand apart in the source and are kept apart here.

What was measured:
[1] = FARMA: permeation of analytes into FAR-loaded liposomes (fluorescence, cuvette or stopped-flow); settings: for membrane permeability (in words): FARMA with FAR-loaded liposomes or GUVs
Source text: Elementary physical parameters, such as permeability coefficients, can be extracted from the full kinetic FARMA data. This kinetic profile → parameter mapping requires some assumptions to be made in regard to the permeation mechanism. We applied a reported permeation model for liposomes[31] to arrive at permeation rate constants (kp) and apparent permeability coefficients (Papp). The derivation of the mathematical relation (1), linking the fundamental permeability rate constant and permeability coefficient to experimental measurable kobs rate constants, the known total analyte and total FAR concentration, and the experimentally determined liposome radius (r), is shown in the Supplementary Information.1 Papp=kp⋅r/3=kobs/canalyte⋅cFAR⋅r/3 […]
The volume-to-surface correction factor r/3 accounts for the fact that the observed rates depend on the size, i.e., radius r, of the liposomal assembly. […] The initial-rate method can also be applied, see the Supplementary Information. Moreover, kobs/canalyte can be estimated by single-point measurements at selected canalyte concentration.
A solution of 2.5 mg/mL of POPC and 0.33 mg/mL of POPS in chloroform was purged with nitrogen and dried overnight under […] vacuum. […] The resulting FAR-loaded liposomes were separated from non-encapsulated species by size-exclusion chromatography (NAP-25 column), while maintaining the same buffer. The absence of non-encapsulated FAR was confirmed by adding a non-membrane-permeable species such as tryptophan to a fluorescence cuvette containing 25 µL of liposomes diluted in 1 mL HEPES (10 mM) buffer. Complete removal of non-encapsulated FAR is indicated by the absence of a significant fluorescence change upon Trp addition.
In a typical experiment, 20 µL of liposome solution loaded with FAR was diluted in 1 mL HEPES buffer (10 mM, pH 7.0) in a 1 mL quartz cuvette. An emission spectrum was recorded after 10 min of “equilibration time” on a Varian Eclipse spectrofluorometer thermostated at 22 °C with a water bath using λexc = 400 nm for FAR-1, λexc = 310 nm for FAR-2, and λexc = 330 nm for FAR-3. In the time-resolved experiments, the emission intensity at λobs = 450 nm for FAR-1, λobs = 370 nm for FAR-2, and λobs = 370 and 500 nm for FAR-3 (the latter is the emerging excimer band for certain FAR-3•analyte complexes) was recorded with an averaging time of 0.5 s. […] For single-point experiments, a full spectrum was recorded after a fixed time or several time intervals after analyte addition. […] Only FAR-analyte combinations were used for FARMA, for which no significant autofluorescence and competitive light absorption of the analyte occurred.
For each experiment, measurements from 6 injections were accumulated and the average of these traces was used for data analysis.
Calculation of the unimolecular permeation rate constants ( kp) and of the apparent permeability coefficients (Papp).
The passive diffusion (permeation) of small non-charged compounds follows a modified Fick’s law and can be expressed by a first order kinetics.1 Similar to first order chemical reactions, the kinetics curve can therefore be fitted monoexponentially to obtained the observed permeation rates (kobs). In our assay set-up, such an exponential fit is an approximation, since it neglects that a certain fraction of transported analyte is bound to the FAR and cannot exit the liposome. Nevertheless, the fit of the kinetic curves of the […]
approximation is justified.

Caco-2 = settings: cited from earlier work
FAR-1 = test: Fluorescence titration, FAR•analyte complex formation in homogeneous solution; type: binding; settings: FAR-1; 10 mM HEPES buffer (pH 7); 1:1 binding model; error estimate ≤ 20%
Procedure: Fluorescence titrations were carried out in aqueous HEPES buffer (10 mM, pH 7, 22 °C) unless stated otherwise. To a solution of the FAR (typically at 10–30 μM) was stepwise added a solution of the analyte (typically up to 2 mM) and the fluorescence spectra were recorded. The normalized emissions at 450 nm (FAR-1) or at 370 nm (FAR-2) were fitted with an equation for a 1 : 1 binding by a least-square fit. The resulting affinity constants are reported in Supplementary Table 1. Representative titration plots are shown in Supplementary Fig. 1. Note that the high CB8-dye binding affinities correspond to a near quantitative degree of host-dye complexation, i.e., quantitative formation of the FAR, such that the subsequent binding of the analyte can be treated independently.

[2] = FARMA in DOPC:DOPS compared to POPC:POPS liposomes; type: in vitro ADME; settings: peer review file
Source text: good choice since they give different degrees of packing of lipids. If the authors further utilize the liposomes for testing membrane permeability of some of the compounds appeared in the manuscript using FARMAs composed of such different types of lipids, the results would be informative for understanding relationships between permeability of compounds and lipid structures.
The FARMA method opens indeed a door for the systematic investigation of permeability in dependence on (i) different lipids, (ii) temperature, (iii) phase transitions, and (iv) additives. These studies are under way in our laboratories but we have now emphasized some key findings in regard to the transferability of the method:
- Investigation of additives: We show in the manuscript that different lipid composition are in princi-ple possible by adding cholesterol to the POPC and POPS membrane (Fig S7), causing a noticeable alteration of the permeation kinetics of tryptamine as a model analyte.
- Different lipid compositions: We have added a statement on page 10 (bottom) pointing to the possi-bility of preparing reporter-pair loaded liposomes with different lipid POPC:POPS compositions, ranging from 8:1 to 15:1 (our GUV preparations in the manuscript) to pure POPC (ref. 20 in the main […]

[3] = Aliquot analysis/flat lipid bilayer (macroscopic bilayer of brain phospholipids); cited from earlier work
[4] = Dye displacement membrane assay (liposome-encapsulated host•dye ensembles); settings: dye displacement, CB7•BE-, CB8•MV•5OH-Trp- or CB8•MV•2,6-ANS-loaded liposomes
Source text: Supplementary Figure 13 | Graphical representation of membrane assays using dye displacement for signaling. Diffusion of analytes through a lipid membrane is detected by displacement of the dye from (a) a host•dye or (b) a host•dye•quencher complex, leading to reduction or enhancement in emission intensity.
Supplementary Figure 14 | Membrane permeation monitoring of analytes by dye displacement. (a) Time-resolved changes in fluorescence intensity of CB7•BE-loaded liposomes (λexc = 347 nm, λobs = 500 nm) upon addition of the membrane-permeable analyte tyramine and membrane destabilizing peptide melittin.
(b) Evolution of fluorescence intensity after addition of dimethylbenzylamine (DMBA) to CB7•PAL-loaded liposomes (λexc = 347 nm, λobs = 500 nm). (c) Fluorescence response after addition of the […]
tryptophan to liposomes loaded with CB8•MV•2,6-ANS (λexc = 380 nm, λobs = 463 nm). […]
Combing equations S1 and S2, one arrives at Papp = kp∙(r/3) = kobs/canalyte∙cFAR∙(r/3) (equation 1 in main text)
Dye displacement membrane assay
Dye displacement membrane assays rely on selective encapsulation of reporter pairs inside liposomes and the reversible interaction between the receptor and the translocated analyte. To conduct the assay, liposomes containing the chemosensing ensemble composed of a macrocyclic host and a dye are prepared and purified, such that a subsequently added analyte affects the dye fluorescence only if it can enter the vesicle and displaces the dye from the macrocycle. Until now, only the dye displacement has been used as the signaling mechanism for tandem membrane assays,3, 4 whereby the competitive displacement of the dye from such host•dye complexes upon analyte addition restores the fluorescence features of the dye in solution, Supplementary Figures 13 - 14.
Specifically, this signaling mechanism has been mostly employed with macrocyclic host s with cavity space that is capable o f forming 1:1 complex es, e.g., cucurbit[7]uril (CB7) and the dyes berberine (BER) or palmatine (PAL), see Supplementary Figure 13a, or with p-sulfonato calix[4]arene (CX4) and lucigenin.3,4 Expanding the repertoire of chemosensors for tandem membrane assay s, we exploit herein also the ability of a larger macrocyclic host such as cucurbit[8]uril (CB8) to form 1:1:1 ternary complexes,5-7 and utilize here the quencher methyl viologen (MV) in combination with the fluorescent dyes 5-hydroxy tryptophan (5HO-Trp), 2-anilinonaphthalene -6-sulfonic acid (2,6-ANS) or dapoxyl sulfonic acid, sodium salt (DapoxS), Supplementary Figure 13b. Upon addition of an analyte, the fluorescent dye, the quencher or both the fluorescent dye and quencher are displaced from the CB8 cavity, which in each case is reflected by an increase in the emission intensity of the dye (switch -on displacement assay), Supplementary Figures 14- […]
The dye displacement signal strategy has two important disadvantages compared to the preferred fluorescent artificial receptor (FAR) assays:
(i) The dye displacement strategy is limited to strongly binding analytes, i.e., K(analyte) ≥ K(dye), otherwise a large excess concentration of analyte is needed to generate significant

[5] = Fluorescence quenching; cited from earlier work
[6] = PAMPA; cited from earlier work
[7] = End-point analysis/EPC liposomes; cited from earlier work
[8] = 298 K; cited from earlier work
[9] = no passive permeation but active transport

CC12CC3CC(C)(C1)CC(N)(C3)C2 [Memantine, 3,5-dimethyladamantan-1-amine, reference compound]
Papp ([1]; not told, pH 7): 24 ×10⁻⁶ cm/s | Papp Literature (Caco-2): 43 10^−6 cm s^−1

NCCc1c[nH]c2ccc(O)cc12 [Serotonin, serotonin]
membrane permeability (in words) [1]: pass the membrane within several minutes to hours | Papp at 16 µM ([1]; not told, pH 7): 0.004 ×10⁻⁶ cm/s | Ka (FAR-1): 5 10^3 M−1 | permeation rate, factor lower for DOPC:DOPS compared to POPC:POPS liposomes [2]: 2-4 | Papp Literature [3]: 1.1 10^−6 cm s^−1

NCCc1c[nH]c2ccccc12 [Tryptamine, tryptamine]
membrane permeability (in words) [1]: slow permeation; also recorded: pass the membrane within several minutes to hours | Ka (FAR-1): 50 10^3 M−1 | membrane permeability (in words) [4]: slowly membrane permeable | Papp Literature [3]: 6.7 10^−6 cm s^−1 | Papp Literature [5]: 0.33 10^−6 cm s^−1 | Papp Literature [6]: 5.4 10^−6 cm s^−1

c1ccc2[nH]ccc2c1 [Indole, indole]
membrane permeability (in words) [1]: instantaneous; also recorded: permeating | kobs ([1]; monoexponential fit, analyte 40 µM (bulk), FAR-2 ca. 500 µM in the liposome interior, 20% error): 1.8 s–1 | kp ([1]; not told, pH 7): 3200 | kobs ([1]; source data of Fig. 5): 1.8 | log(kobs) ([1]; source data of Fig. 5): 0.2553 | Papp Literature (Caco-2): 57 10^−6 cm s^−1 | Papp Literature [3]: 250 10^−6 cm s^−1

N[C@@H](Cc1c[nH]c2ccccc12)C(=O)O [Trp, tryptophan]
membrane permeability (in words) [1]: no permeation | membrane permeability (in words) ([1]; listed as tryptophan): non-permeating | Ka (FAR-1): 150 10^3 M−1 | membrane permeability (in words) [4]: impermeable | Papp Literature (Caco-2; [9]): 1.0 10^−6 cm s^−1 | Papp Literature [7]: 0.00041 ×10⁻⁶ cm/s

CNC(=C[N+](=O)[O-])NCCSCc1ccc(CN(C)C)o1 [Ranitidine, ranitidine, reference compound]
Papp at 100 µM ([1]; not told, pH 7): 0.013 ×10⁻⁶ cm/s | Ka (FAR-1): 2 10^3 M−1 | Papp Literature (Caco-2; [9]): 0.49 10^−6 cm s^−1 | Papp Literature [6]: 0.88 10^−6 cm s^−1

COc1ccc2cc3[n+](cc2c1OC)CCc1cc2c(cc1-3)OCO2 [BER, berberine]
dissociation rate from CB7 [8]: 0.8 s⁻¹
